Data as given in ChEMBL document CHEMBL5375959 (J Med Chem, 2023).
Blank lines part the entries; values can stand above or below the compound they belong to. Calls of active or inactive are those of the source. The calls are words filed in the database; no cut-off is given here.

Assays:
Ryanodine receptor 2 [1] = target: T1, Ryanodine receptor 2 (Homo sapiens, UniProt Q92736); test: Modulator activity at wild type RyR2 (unknown origin) expressed in HEK293T co-expressed with R-CEPIA1er assessed as decrease in RyR2-mediated calcium leak in presence of calcium chloride by time-lapse fluorescence analysis; assay type: cell-based
[2] = target: Sarcoplasmic/endoplasmic reticulum calcium ATPase 2 (Homo sapiens) (UniProt P16615); test: Activation of SERCA2a in human HEK293T cells endoplasmic reticulum assessed as increase in […] measured for 10 mins in presence of ATP by NADH fluorescence-coupled ATPase assay; assay type: subcellular
Sarcoplasmic/endoplasmic reticulum calcium ATPase 2 (Homo sapiens), sequence (P16615 whole entry): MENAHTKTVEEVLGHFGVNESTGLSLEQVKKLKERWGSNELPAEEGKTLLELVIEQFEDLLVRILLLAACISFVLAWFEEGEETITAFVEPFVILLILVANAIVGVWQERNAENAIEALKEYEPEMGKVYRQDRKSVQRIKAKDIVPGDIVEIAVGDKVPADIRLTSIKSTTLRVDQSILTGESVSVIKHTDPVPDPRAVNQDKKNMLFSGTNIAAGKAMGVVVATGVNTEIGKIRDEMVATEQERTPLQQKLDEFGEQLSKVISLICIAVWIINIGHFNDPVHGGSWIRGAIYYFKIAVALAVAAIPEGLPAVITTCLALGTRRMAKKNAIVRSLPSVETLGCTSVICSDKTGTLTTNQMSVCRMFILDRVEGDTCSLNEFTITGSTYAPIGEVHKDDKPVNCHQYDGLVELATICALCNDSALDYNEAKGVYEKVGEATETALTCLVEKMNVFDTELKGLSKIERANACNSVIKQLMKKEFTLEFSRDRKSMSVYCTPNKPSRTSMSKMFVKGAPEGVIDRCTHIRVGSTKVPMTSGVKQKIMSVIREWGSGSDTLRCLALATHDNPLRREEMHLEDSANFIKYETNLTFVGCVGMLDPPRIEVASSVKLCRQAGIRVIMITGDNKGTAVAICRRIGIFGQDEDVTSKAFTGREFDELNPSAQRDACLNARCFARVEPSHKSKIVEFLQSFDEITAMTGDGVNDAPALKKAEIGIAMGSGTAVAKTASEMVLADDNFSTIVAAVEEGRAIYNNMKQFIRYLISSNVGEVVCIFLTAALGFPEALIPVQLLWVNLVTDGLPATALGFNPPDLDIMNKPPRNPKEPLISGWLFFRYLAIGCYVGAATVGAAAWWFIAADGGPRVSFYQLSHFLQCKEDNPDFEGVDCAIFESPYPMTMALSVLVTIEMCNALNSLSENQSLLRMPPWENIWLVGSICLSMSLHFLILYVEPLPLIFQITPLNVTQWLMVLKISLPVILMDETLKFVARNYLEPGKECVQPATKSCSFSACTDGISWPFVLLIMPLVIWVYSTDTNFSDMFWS

[3] = Permeability of the compound measured after 24 hrs by PAMPA; assay type: ADME; conditions: read-out: permeability
[4] = target: Sarcoplasmic/endoplasmic reticulum calcium ATPase 2 (Mus musculus) (UniProt O55143); test: Activation of SERCA2a in C57BL/6N mouse sarcoplasmic reticulum assessed as increase in […] measured for 10 mins in presence of ATP by NADH fluorescence-coupled ATPase assay; assay type: subcellular; conditions: filed as activator
Sarcoplasmic/endoplasmic reticulum calcium ATPase 2 (Mus musculus), sequence (O55143 whole entry): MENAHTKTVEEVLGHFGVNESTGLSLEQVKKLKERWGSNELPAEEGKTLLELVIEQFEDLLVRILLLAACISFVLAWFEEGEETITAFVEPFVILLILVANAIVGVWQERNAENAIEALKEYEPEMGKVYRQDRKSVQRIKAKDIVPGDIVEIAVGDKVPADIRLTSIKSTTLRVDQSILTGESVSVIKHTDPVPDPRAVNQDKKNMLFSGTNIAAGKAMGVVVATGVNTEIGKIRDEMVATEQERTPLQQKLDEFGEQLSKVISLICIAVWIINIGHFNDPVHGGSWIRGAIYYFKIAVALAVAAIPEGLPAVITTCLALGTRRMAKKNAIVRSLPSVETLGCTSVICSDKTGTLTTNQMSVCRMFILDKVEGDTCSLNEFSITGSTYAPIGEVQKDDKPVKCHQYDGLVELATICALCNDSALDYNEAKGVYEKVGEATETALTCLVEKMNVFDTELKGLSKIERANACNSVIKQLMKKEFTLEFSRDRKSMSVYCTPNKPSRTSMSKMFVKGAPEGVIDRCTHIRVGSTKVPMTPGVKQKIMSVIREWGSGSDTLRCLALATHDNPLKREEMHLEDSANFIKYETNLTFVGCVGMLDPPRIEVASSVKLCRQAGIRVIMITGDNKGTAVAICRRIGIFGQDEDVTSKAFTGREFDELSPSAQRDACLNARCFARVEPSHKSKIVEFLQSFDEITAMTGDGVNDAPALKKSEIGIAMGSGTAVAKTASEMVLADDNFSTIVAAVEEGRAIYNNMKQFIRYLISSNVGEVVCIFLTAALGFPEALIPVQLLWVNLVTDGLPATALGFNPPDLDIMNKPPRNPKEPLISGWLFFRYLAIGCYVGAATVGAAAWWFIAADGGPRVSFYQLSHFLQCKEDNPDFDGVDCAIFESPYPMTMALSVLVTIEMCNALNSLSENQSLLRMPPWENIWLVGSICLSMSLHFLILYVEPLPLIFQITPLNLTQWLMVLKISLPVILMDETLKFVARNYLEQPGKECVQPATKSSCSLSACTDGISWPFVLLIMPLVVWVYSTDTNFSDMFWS

[5] = target: Sarcoplasmic/endoplasmic reticulum calcium ATPase 2 (Mus musculus, UniProt O55143); test: (§1) Activation of SERCA2a in mouse HL-1 cells assessed as increase in caffeine-induced calcium release incubated for 2 hrs by FLIPR Calcium 6 dye based caffeine assay; assay type: cell-based
Sarcoplasmic/endoplasmic reticulum calcium ATPase 2, sequence (O55143 whole entry): as above

[6] = target: Sarcoplasmic/endoplasmic reticulum calcium ATPase 2 (Mus musculus) (UniProt O55143); test: as §1; assay type: cell-based
[7] = target: Sarcoplasmic/endoplasmic reticulum calcium ATPase 2 (Mus musculus) (UniProt O55143); test: Activation of SERCA2a in mouse HL-1 cells assessed as increase in caffeine-induced calcium release at 0.1 to 50 uM incubated for 2 hrs by FLIPR Calcium 6 dye based caffeine assay; assay type: cell-based; conditions: dose 0.1-50 µM
[8] = target: Sarcoplasmic/endoplasmic reticulum calcium ATPase 2 (Mus musculus) (UniProt O55143); test: Activation of SERCA2a in mouse HL-1 cells assessed as increase in caffeine-induced calcium release at 10 uM incubated for 2 hrs by FLIPR Calcium 6 dye based caffeine assay; assay type: cell-based
Ryanodine receptor 2 [9] = target: T1, Ryanodine receptor 2; test: Modulator activity at wild type RyR2 (unknown origin) expressed in HEK293T co-expressed with R-CEPIA1er assessed as decrease in RyR2-mediated calcium leak at 25 uM in presence of calcium chloride by time-lapse fluorescence analysis; assay type: cell-based; conditions: filed as modulator
Ryanodine receptor 2 [10] = target: T1, Ryanodine receptor 2; test: Modulator activity at wild type RyR2 (unknown origin) expressed in HEK293T co-expressed with R-CEPIA1er assessed as decrease in RyR2-mediated calcium leak at 1 mM in presence of calcium chloride by time-lapse fluorescence analysis; assay type: cell-based; conditions: filed as modulator
[11] = target: Sarcoplasmic/endoplasmic reticulum calcium ATPase 2 (Mus musculus) (UniProt O55143); test: Activation of SERCA2a in mouse HL-1 cells assessed as increase in caffeine-induced calcium release at 3 uM incubated for 2 hrs by FLIPR Calcium 6 dye based caffeine assay relative to control; assay type: cell-based; conditions: filed as activator
[12] = target: Sarcoplasmic/endoplasmic reticulum calcium ATPase 2 (Mus musculus) (UniProt O55143); test: Activation of SERCA2a in mouse HL-1 cells assessed as increase in caffeine-induced calcium release at 50 uM incubated for 2 hrs by FLIPR Calcium 6 dye based caffeine assay; assay type: cell-based
[13] = target: Sarcoplasmic/endoplasmic reticulum calcium ATPase 2 (Mus musculus) (UniProt O55143); test: Activation of SERCA2a in mouse HL-1 cells assessed as increase in caffeine-induced calcium release at 25 uM incubated for 2 hrs by FLIPR Calcium 6 dye based caffeine assay; assay type: cell-based
[14] = target: Sarcoplasmic/endoplasmic reticulum calcium ATPase 2 (Mus musculus) (UniProt O55143); test: Activation of SERCA2a in mouse HL-1 cells assessed as increase in caffeine-induced calcium release at 10 uM incubated for 2 hrs by FLIPR Calcium 6 dye based caffeine assay relative to control; assay type: cell-based; conditions: filed as activator

SMILES: COc1ccc(SCCCNCCCCC2(O)CC2)cc1
Activity ([2]; filed as activator): Active
Papp at 24 h [3]: 6.9 ×10⁻⁶ cm/s
Activity [4]: Active

SMILES: COc1ccc(SCCCN(CCCCC2(O)CC2)CCCCC2(O)CC2)cc1
Activity ([2]; filed as activator): Active
Papp at 24 h [3]: 3.6 ×10⁻⁶ cm/s
Activity [4]: Active

SMILES: COc1ccc2c(c1)CN(C(=O)C(=O)O)CCS2 [ALADORIAN]
Activity [7]: inactive
Activity (Ryanodine receptor 2 [1]; filed as modulator): Active
Activity [6]: inactive
Papp at 24 h [3]: 1 ×10⁻⁶ cm/s
Activity [8]: inactive
Activity (Ryanodine receptor 2 [9]): Active

SMILES: COc1ccc2c(c1)CN(C)CCS2
Activity [7]: inactive
Activity (Ryanodine receptor 2 [1]; filed as modulator): Active
Activity [6]: inactive
Papp at 24 h [3]: 1.2 ×10⁻⁶ cm/s
Activity [8]: inactive
Activity (Ryanodine receptor 2 [10]): Active

SMILES: COc1ccc(OCCCN(CCCCC2(O)CC2)CCCCC2(O)CC2)cc1
Activity [11]: 150%
Activity [12]: inactive
EC50 (Ryanodine receptor 2 [1]): > 23 µM
EC50 [5]: 1.5 µM
Activity ([2]; filed as activator): Active
Papp at 24 h [3]: 4 ×10⁻⁶ cm/s
Activity [4]: Active
Activity [13]: inactive
Activity [14]: 150%

SMILES: COc1ccc2c(c1)CN(CCCCN(CCCCC1(O)CC1)CCCCC1(O)CC1)CCS2
EC50 (Ryanodine receptor 2 [1]): 2.7 µM
Papp at 24 h [3]: 0.6 ×10⁻⁶ cm/s
Activity (Ryanodine receptor 2 [9]): Active

SMILES: COc1ccc(OCCCNCCCCC2(O)CC2)cc1
Activity [2]: inactive
Papp at 24 h [3]: 4 ×10⁻⁶ cm/s
Activity [4]: Active

SMILES: O=C1CN(/N=C/c2ccc(-c3ccc([N+](=O)[O-])cc3)o2)C(=O)N1
Activity (Ryanodine receptor 2 [9]): Active

Next, values leading:

EC50 (Ryanodine receptor 2 [1]): 8.17 µM
Activity [2]: inactive
Papp at 24 h [3]: 0.8 ×10⁻⁶ cm/s
Activity [4]: Active
SMILES: COc1ccc2c(c1)CN(CCCCNCCCCC1(O)CC1)CCS2

Activity (Ryanodine receptor 2 [1]; filed as modulator): Active
EC50 [5]: 34.3 µM
Activity ([6]; filed as activator): Dose-Dependent Effect
Activity ([2]; filed as activator): Active
Papp at 24 h [3]: 6.8 ×10⁻⁶ cm/s
Activity [4]: Active
SMILES: COc1ccc2c(c1)CN(Cc1ccc(C(=O)O)cc1)CCS2 [SURLORIAN]

Activity (Ryanodine receptor 2 [1]): inactive
EC50 [5]: > 1000 µM
Activity ([2]; filed as activator): Active
Papp at 24 h [3]: 3.6 ×10⁻⁶ cm/s
Activity [4]: Active
SMILES: COc1ccc2c(c1)CN(CCCCC1(O)CC1)CCS2
